± gives the expanded uncertainty stated by the source.

The conditions of the series: Liquid; flow method with low residence time.
As for `CCCCCCCC` [octane], the Critical pressure worked out at 2496 ± 24 kPa and the Critical temperature turned out to be 568.9 ± 0.4 K.

As for `CCCCCCC` [heptane], the Critical pressure came out at 2736 ± 25 kPa and the Critical temperature amounted to 540.1 ± 0.4 K.

In the case of `C1CCCCC1` [cyclohexane], the Critical pressure stood at 4074 ± 36 kPa and the Critical temperature is 553.6 ± 0.4 K.

`CCCCCC` [hexane]: the Critical pressure is recorded as 3033 ± 27 kPa and the Critical temperature worked out at 507.8 ± 0.4 K.

With `CCOC(=O)OCC` [diethyl carbonate], the Critical pressure is listed as 3346 ± 30 kPa and the Critical temperature is listed as 578.1 ± 0.4 K.

In the case of `CCO` [ethanol], the Critical pressure worked out at 6141 ± 51 kPa and the Critical temperature was 514 ± 0.4 K.

For the origin of these results see the NIST ThermoML archive (doi:10.1016/j.fluid.2018.04.021).
